Patent US20250066286A1, “COMPOSITIONS OF (Z)-ENDOXIFEN AND METHODS OF ENRICHMENT THEREOF” (Atossa Therapeutics, Inc., priority 2022, published 2025)

Test: Precipitation of (Z)-endoxifen by antisolvent addition, PAD and PAI (XRPD)
Type: physicochemical
Experimental: Further (Z)-endoxifen crystallizations were performed utilizing antisolvents to affect precipitation. (Z)-endoxifen was dissolved in various solvents to obtain suspensions at room temperature that were then stirred overnight and filtered with a nylon filter (0.22 μm) to obtain a clear stock solution. Two different types of precipitation experiments were performed with the resulting clear stock solutions. For precipitation by antisolvent addition to a saturated solution (PAD) experiments, antisolvent was added dropwise to the clear stock solution during stirring at room temperature at a ratio of 1:5 or 1:10 stock solution:antisolvent. For precipitation by saturated solution addition to an antisolvent (PAI) experiments, the clear stock solution was added drop wise to antisolvent under magnetic stirring at room temperature at a ratio of 1:5 or 1:10 stock solution:antisolvent. All obtained precipitates from PAD and PAI experiments were filtered under vacuum and analyzed by XRPD. […] After storage if there was no precipitate, the solutions were evaporated at room temperature. All obtained precipitates were filtered under vacuum and analyzed by XRPD. PAD and PAI experiments were also performed on the clear solutions with a concentration of 20 mg/ml (Z)-endoxifen recovered from the solubility experiments, described in EXAMPLE 19. The clear solutions recovered were (Z)-endoxifen solutions in ethyl acetate, butyl acetate, 4-met-2-pentanone, and toluene. The procedure for the PAI and PAD was the same as described above.

[1] = PAD--GRAD-EVRT, butyl acetate 0.15 mL, butyl methyl ether 1.5 mL, RT
[2] = PAD--GRAD-EVRT, tetrahydrofuran 0.03 mL sat, acetone 0.3 mL, RT
[3] = PAD-GRAD-EVRT, ethyl acetate 0.15 mL, butyl methyl ether 1.5 mL, RT
[4] = PAD-GRAD-EVRT, toluene 0.15 mL, butyl methyl ether 1.5 mL, RT
[5] = PAD, butyl acetate 0.15 mL, 20 mg/mL, antisolvent heptane 0.75 mL, RT
[6] = PAD, butyl acetate 0.15 mL, 20 mg/mL, antisolvent heptane 1.5 mL, RT
[7] = PAD, ethyl acetate 0.15 mL, 20 mg/mL, antisolvent heptane 0.75 mL, RT
[8] = PAD, ethyl acetate 0.15 mL, 20 mg/mL, antisolvent heptane 1.5 mL, RT
[9] = PAD, tetrahydrofuran 0.03 mL sat, heptane 0.15 mL, RT
[10] = PAD, tetrahydrofuran 0.03 mL sat, water 0.15 mL, RT
[11] = PAD, tetrahydrofuran 0.03 mL sat, water 0.3 mL, RT
[12] = PAD, toluene 0.15 mL, 20 mg/mL, antisolvent heptane 1.5 mL, RT
[13] = PAI-GRAD-EVRT, tetrahydrofuran 0.03 mL sat, acetone 0.3 mL, RT
[14] = PAI, tetrahydrofuran 0.03 mL sat, heptane 0.15 mL, RT
[15] = PAI, tetrahydrofuran 0.03 mL sat, water 0.3 mL, RT

## CC/C(=C(\c1ccc(O)cc1)c1ccc(OCCNC)cc1)c1ccccc1 [(Z)-endoxifen, (Z)-4-(1-(4-(2-(methylamino)ethoxy)phenyl)-2-phenylbut-1-enyl)phenol]
[1]
  Output Crystallinity [high/low/SC/oriented]: low
  Output Main phase [phase]: Form I
[2]
  Output Main phase [phase]: Form XII
  Output Traces [phase]: Form I
PAD-GRAD-EVRT, dimethylformamide 0.15 mL sat, butyl methyl ether 1.5 mL, RT
  Output Main phase [phase]: Form I
[3]
  Output Crystallinity [high/low/SC/oriented]: low
  Output Main phase [phase]: Form I
[4]
  Output Crystallinity [high/low/SC/oriented]: low
  Output Main phase [phase]: Form VIII
PAD-GRAD, butyl acetate 0.15 mL, butyl methyl ether 1.5 mL, 25 to −20 °C, ramp not controlled, 1 d
  Output Main phase [phase]: no solid
PAD-GRAD, dimethylformamide 0.15 mL sat, butyl methyl ether 1.5 mL, RT to −20 °C, 1 d
  Output Main phase [phase]: no solid
PAD-GRAD, ethyl acetate 0.15 mL, butyl methyl ether 1.5 mL, 25 to −20 °C, ramp not controlled, 1 d
  Output Main phase [phase]: no solid
PAD-GRAD, methyl isobutyl ketone 0.15 mL, butyl methyl ether 1.5 mL, 25 to −20 °C, ramp not controlled, 1 d
  Output Main phase [phase]: no solid
PAD-GRAD, tetrahydrofuran 0.03 mL sat, acetone 0.3 mL, RT to −20 °C, 1 d
  Output Main phase [phase]: no solid
PAD-GRAD, toluene 0.15 mL, butyl methyl ether 1.5 mL, 25 to −20 °C, ramp not controlled, 1 d
  Output Main phase [phase]: no solid
PAD, butyl acetate 0.15 mL, 20 mg/mL, antisolvent butyl methyl ether 0.75 mL, RT
  Output Main phase [phase]: no solid
PAD, butyl acetate 0.15 mL, 20 mg/mL, antisolvent butyl methyl ether 1.5 mL, RT
  Output Main phase [phase]: no solid
[5]
  Output Crystallinity [high/low/SC/oriented]: low
  Output Main phase [phase]: no solid
[6]
  Output Crystallinity [high/low/SC/oriented]: low
  Output Main phase [phase]: Form IX
PAD, dimethylformamide 0.15 mL sat, butyl methyl ether 0.75 mL, RT
  Output Main phase [phase]: no solid
PAD, dimethylformamide 0.15 mL sat, butyl methyl ether 1.5 mL, RT
  Output Main phase [phase]: no solid
PAD, dimethylformamide 0.15 mL sat, water 0.75 mL, RT
  Output Main phase [phase]: amorphous
PAD, ethyl acetate 0.15 mL, 20 mg/mL, antisolvent butyl methyl ether 0.75 mL, RT
  Output Main phase [phase]: no solid
PAD, ethyl acetate 0.15 mL, 20 mg/mL, antisolvent butyl methyl ether 1.5 mL, RT
  Output Main phase [phase]: no solid
[7]
  Output Crystallinity [high/low/SC/oriented]: low
  Output Main phase [phase]: no solid
[8]
  Output Crystallinity [high/low/SC/oriented]: low
  Output Main phase [phase]: Form IX
PAD, methyl isobutyl ketone 0.15 mL, 20 mg/mL, antisolvent butyl methyl ether 0.75 mL, RT
  Output Main phase [phase]: no solid
PAD, methyl isobutyl ketone 0.15 mL, 20 mg/mL, antisolvent butyl methyl ether 1.5 mL, RT
  Output Main phase [phase]: no solid
PAD, methyl isobutyl ketone 0.15 mL, 20 mg/mL, antisolvent heptane 0.75 mL, RT
  Output Main phase [phase]: no solid
PAD, methyl isobutyl ketone 0.15 mL, 20 mg/mL, antisolvent heptane 1.5 mL, RT
  Output Main phase [phase]: no solid
PAD, tetrahydrofuran 0.03 mL sat, acetone 0.15 mL, RT
  Output Main phase [phase]: no solid
PAD, tetrahydrofuran 0.03 mL sat, acetone 0.3 mL, RT
  Output Main phase [phase]: no solid
[9]
  Output Crystallinity [high/low/SC/oriented]: low
  Output Main phase [phase]: Form XIX
[10]
  Output Crystallinity [high/low/SC/oriented]: low
  Output Main phase [phase]: no solid
[11]
  Output Crystallinity [high/low/SC/oriented]: low
  Output Main phase [phase]: Form IV
PAD, toluene 0.15 mL, 20 mg/mL, antisolvent butyl methyl ether 0.75 mL, RT
  Output Main phase [phase]: no solid
PAD, toluene 0.15 mL, 20 mg/mL, antisolvent butyl methyl ether 1.5 mL, RT
  Output Main phase [phase]: no solid
PAD, toluene 0.15 mL, 20 mg/mL, antisolvent heptane 0.75 mL, RT
  Output Main phase [phase]: no solid
[12]
  Output Crystallinity [high/low/SC/oriented]: low
  Output Main phase [phase]: Amorphous
PAI-GRAD-EVRT, dimethylformamide 0.15 mL sat, butyl methyl ether 1.5 mL, RT
  Output Main phase [phase]: Form I
[13]
  Output Main phase [phase]: Form XII
  Output Traces [phase]: Form XIII
PAI-GRAD, dimethylformamide 0.15 mL sat, butyl methyl ether 1.5 mL, RT to −20 °C, 1 d
  Output Main phase [phase]: no solid
PAI-GRAD, tetrahydrofuran 0.03 mL sat, acetone 0.3 mL, RT to −20 °C, 3 d
  Output Main phase [phase]: no solid
PAI, dimethylformamide 0.15 mL sat, butyl methyl ether 1.5 mL, RT
  Output Main phase [phase]: no solid
PAI, dimethylformamide 0.15 mL sat, water 0.75 mL, RT
  Output Main phase [phase]: Form I
PAI, tetrahydrofuran 0.03 mL sat, acetone 0.3 mL, RT
  Output Main phase [phase]: no solid
[14]
  Output Crystallinity [high/low/SC/oriented]: low
  Output Main phase [phase]: Form XIX
[15]
  Output Crystallinity [high/low/SC/oriented]: low
  Output Main phase [phase]: Form IV
